Data from patent publication US4244956A, “Method of treating inflammation” (Forsyth Dental Infirmary for Children, priority 1979, dated 1981).

Legend:
[1] = biological target: T1, prostaglandin synthetase (Ovis aries, UniProt P05979); experiment: Inhibition of prostaglandin synthesis, sheep vesicular gland microsomal preparation, oxygen electrode; type: biochemical; details: sheep vesicular gland microsomes, pH 8.0, inhibitor added 1 minute before arachidonate; oxygen uptake; read-out: [I]50 Values for Inhibition of Prostaglandin Synthesis
T1 construct: sheep vesicular gland microsomal preparation; from tissue; host or cells: sheep vesicular gland microsomes
T1 sequence (P05979 25-600): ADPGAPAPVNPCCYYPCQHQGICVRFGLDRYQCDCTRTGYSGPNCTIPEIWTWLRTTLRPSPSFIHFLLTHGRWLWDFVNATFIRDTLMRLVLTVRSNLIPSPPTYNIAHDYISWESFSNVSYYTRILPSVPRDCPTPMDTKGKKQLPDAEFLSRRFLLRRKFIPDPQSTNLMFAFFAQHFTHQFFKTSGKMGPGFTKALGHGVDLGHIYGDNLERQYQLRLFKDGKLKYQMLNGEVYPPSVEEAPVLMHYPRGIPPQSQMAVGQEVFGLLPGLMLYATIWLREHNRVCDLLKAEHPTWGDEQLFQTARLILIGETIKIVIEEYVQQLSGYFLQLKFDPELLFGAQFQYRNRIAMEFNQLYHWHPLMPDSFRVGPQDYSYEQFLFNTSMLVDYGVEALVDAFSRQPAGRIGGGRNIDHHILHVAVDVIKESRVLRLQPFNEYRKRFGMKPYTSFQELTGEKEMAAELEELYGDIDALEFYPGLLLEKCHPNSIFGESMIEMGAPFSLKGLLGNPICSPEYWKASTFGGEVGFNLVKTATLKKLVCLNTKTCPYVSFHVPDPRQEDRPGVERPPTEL
Method: A commonly used model system for examination of prostaglandin synthetase inhibition is the sheep vesicular gland microsomal preparation (Wallach, D. P. and Daniels, E. G., Biochim. Biophys. Acta., 231: 445-457 (1971)). Prostaglandin synthetase activity was determined by following oxygen tension in a closed reaction chamber using a Clark-type oxygen electrode. For each assay, 2.9 ml of 0.1 M tris HCl buffer, pH 8.0, 10 ul of 0.2 M phenol, and 50 ul of enzyme suspension (2.5 mg microsomal preparation) were added to the reaction chamber. 10 ul of inhibitor in ethanol were added 1 minute prior to initiation of the reaction. The reaction was initiated by addition of 10 ul of 3.7 mM arachidonate solution. The concentration of an inhibitor that reduced prostaglandin synthesis by 50% ([I]50) was determined from plots of activity v. log concentration of inhibitor.

[2] = test system: platelet aggregation; experiment: Inhibition of arachidonate-induced platelet aggregation in platelet-rich plasma (aggregometer); type: cell-based; details: 37° C, 50 ul of 10 mM arachidonate, read-out: [I]50, concentration of inhibitor which prevented irreversible aggregation 50% of the time
Method: Inhibition of platelet aggregation by prostaglandin synthetase inhibitors is of potential value in treating thromboembolic disorders. Aggregation experiments were performed in a single-channel Chrono-log Platelet Aggregometer at 37° C. To 500 ul of platelet-rich plasm were added 2 ul of inhibitor solution and 50 ul of 10 mM arachidonate. The [I]50 value was defined as the concentration of inhibitor which prevented irreversible aggregation 50% of the time. The [I]50 of 2-(phenylmethoxy)phenol was 0.57 uM.

IC50 [1] [µM] | IC50 [2] [µM] | SMILES
3.3 | – | Oc1ccccc1OCc1cccc(Cl)c1 [2-(3-chlorophenylmeythoxy)phenol, 2-(3-chlorophenylmethoxy)phenol]
5.2 | 0.57 | Oc1ccccc1OCc1ccccc1 [2-(phenylmethoxy)phenol]
4.7 | – | Cc1ccccc1COc1ccccc1O [2-(2-methylphenylmethoxy)phenol]
